Data taken from patent publication US12655083B2, “Solid forms of cannabidiol and uses thereof” (Artelo Biosciences, Inc., priority 2017, dated 2026).
Converted amounts (≈) assume the structure as drawn.

Experiments:
[1] = Approximate (kinetic) solubility estimate by aliquot addition with visual inspection; format: physicochemical; details: for solubility: thermodynamic from solid, ambient temperature
Protocol: Weighed samples were treated with aliquots of a solvent or solvent mixture at RT. The mixtures were sonicated between additions to facilitate dissolution. Complete dissolution of the test material was determined by visual inspection. Solubility was estimated based on the total solvent used to provide complete dissolution. The actual solubility may be greater than the value calculated because of the use of solvent aliquots that were too large or due to a slow rate of dissolution. […] If complete dissolution was achieved as a result of only one aliquot addition, the solubility is expressed as “greater than.”
Solubilities were estimated by adding measured aliquots of solvent to weighed amounts of cannabidiol at room temperature (RT). Samples were sonicated in between aliquot additions and dissolution was judged by visual inspection.

[2] = Colour change of solutions from solubility estimates at room temperature; format: physicochemical; details: acetone, acetonitrile, DMA, DMF, p-dioxane, ethanol, IPOAc, MEK and methanol; after 1-3 days at room temperature
Protocol: Kinetic solubility estimates of cannabidiol were determined in various solvents to aid in designing screening experiments (Tables 1 and 2). Solubilities were estimated by adding measured aliquots of solvent to weighed amounts of cannabidiol at room temperature (RT). Samples were sonicated in between aliquot additions and dissolution was judged by visual inspection. Discoloration of the solutions produced from solubility estimates in acetone, acetonitrile, DMA, DMF, p-dioxane, ethanol, IPOAc, MEK and methanol were observed after 1-3 days at room temperature.

## C=C(C)[C@@H]1CCC(C)=C[C@H]1c1c(O)cc(CCCCC)cc1O [Cannabidiol]
[1]; organic solvent or mixture, Acetone
  solubility: 23 mg/mL (≈ 73.1 mM)
[1]; organic solvent or mixture, Acetonitrile
  solubility: > 50 mg/mL
[1]; organic solvent or mixture, Cyclohexane
  solubility: 15 mg/mL (≈ 47.7 mM)
[1]; organic solvent or mixture, DCM
  solubility: 19 mg/mL (≈ 60.4 mM)
[1]; organic solvent or mixture, DMSO
  solubility: 21 mg/mL (≈ 66.8 mM)
[1]; organic solvent or mixture, Diethyl Ether
  solubility: > 57 mg/mL
[1]; organic solvent or mixture, EtOAc
  solubility: > 46 mg/mL
[1]; organic solvent or mixture, IPA
  solubility: 14 mg/mL (≈ 44.5 mM)
[1]; organic solvent or mixture, IPOAc
  solubility: > 68 mg/mL
[1]; organic solvent or mixture, MEK
  solubility: > 55 mg/mL
[1]; organic solvent or mixture, MIBK
  solubility: > 59 mg/mL
[1]; organic solvent or mixture, MTBE
  solubility: 34 mg/mL (≈ 108 mM)
[1]; organic solvent or mixture, MeOH
  solubility: > 57 mg/mL
[1]; organic solvent or mixture, NMP
  solubility: 29 mg/mL (≈ 92.2 mM)
[1]; organic solvent or mixture, Octanol
  solubility: 13 mg/mL (≈ 41.3 mM)
[1]; organic solvent or mixture, TFE
  solubility: < 1 mg/mL
[1]; organic solvent or mixture, THF
  solubility: > 71 mg/mL
[1]; organic solvent or mixture, p-dioxane
  solubility: > 48 mg/mL
[1]; Water
  solubility: < 1 mg/mL
[1]; water, aliquot addition method
  Aqueous solubility estimate: <1 mg/mL
[2]
  Discoloration of solutions from solubility estimates: Discoloration
